Source: ChEMBL document CHEMBL5608186, “Design, synthesis and structure-activity relationships of novel non-ketolides: 9-Oxime clarithromycin featured with seven-to thirteen-atom-length diamine linkers at 3-OH” (Eur J Med Chem, 2024)
Converted amounts (≈) assume the structure as drawn.

Columns and labels:
Format in all cases: functional
Staphylococcus aureus [1] = test: Antibacterial activity against methicillin-resistant Staphylococcus aureus PU 20 harboring c-ermA gene incubated for 16 to 20 hrs by CLSI based broth microdilution method; conditions: time 16-20 hrs
Staphylococcus aureus [2] = test: Selectivity ratio of MBC for methicillin-resistant Staphylococcus aureus PU 32 harboring i-ermA gene to MIC for methicillin-resistant Staphylococcus aureus PU 32 harboring i-ermA gene
Staphylococcus aureus [3] = test: Bactericidal activity against methicillin-resistant Staphylococcus aureus PU 32 harboring i-ermA gene incubated for 16 to 20 hrs by CLSI based broth microdilution method; conditions: time 16-20 hrs
Streptococcus pyogenes [4] = test: Selectivity ratio of MBC for Streptococcus pyogenes 01-968 harboring i-ermB gene to MIC for Streptococcus pyogenes 01-968 harboring i-ermB gene
Streptococcus pyogenes [5] = test: Bactericidal activity against Streptococcus pyogenes 01-968 harboring i-ermB gene incubated for 16 to 20 hrs by CLSI based broth microdilution method; conditions: time 16-20 hrs
Streptococcus pyogenes [6] = test: Antibacterial activity against Streptococcus pyogenes 01-968 harboring i-ermB gene incubated for 16 to 20 hrs by CLSI based broth microdilution method; conditions: time 16-20 hrs
Streptococcus pneumoniae [7] = test: Selectivity ratio of MBC for Streptococcus pneumoniae 07P390 harboring c-erm gene to MIC for Streptococcus pneumoniae 07P390 harboring c-erm gene
Streptococcus pneumoniae [8] = test: Bactericidal activity against Streptococcus pneumoniae 07P390 harboring c-erm gene incubated for 16 to 20 hrs by CLSI based broth microdilution method; conditions: time 16-20 hrs
Streptococcus pneumoniae [9] = test: Antibacterial activity against Streptococcus pneumoniae 07P390 harboring c-erm gene incubated for 16 to 20 hrs by CLSI based broth microdilution method; conditions: time 16-20 hrs
Streptococcus pneumoniae [10] = test: Selectivity ratio of MBC for Streptococcus pneumoniae PU 09 harboring mef gene to MIC for Streptococcus pneumoniae PU 09 harboring mef gene
Streptococcus pneumoniae [11] = test: Bactericidal activity against Streptococcus pneumoniae PU 09 harboring mef gene incubated for 16 to 20 hrs by CLSI based broth microdilution method; conditions: time 16-20 hrs
Streptococcus pneumoniae [12] = test: Selectivity ratio of MBC for Streptococcus pneumoniae ATCC 49619 to MIC for Streptococcus pneumoniae ATCC 49619
Streptococcus pneumoniae [13] = test: Antibacterial activity against Streptococcus pneumoniae PU 09 harboring mef gene incubated for 16 to 20 hrs by CLSI based broth microdilution method; conditions: time 16-20 hrs
Streptococcus pneumoniae [14] = test: Bactericidal activity against Streptococcus pneumoniae ATCC 49619 incubated for 16 to 20 hrs by CLSI based broth microdilution method; conditions: time 16-20 hrs
Streptococcus pneumoniae [15] = test: Antibacterial activity against Streptococcus pneumoniae ATCC 49619 incubated for 16 to 20 hrs by CLSI based broth microdilution method; conditions: time 16-20 hrs
Haemophilus influenzae [16] = test: Selectivity ratio of MBC for Haemophilus influenzae ATCC 49247 to MIC for Haemophilus influenzae ATCC 49247
Staphylococcus aureus [17] = test: Antibacterial activity against methicillin-resistant Staphylococcus aureus PU 32 harboring i-ermA gene incubated for 16 to 20 hrs by CLSI based broth microdilution method; conditions: time 16-20 hrs
Haemophilus influenzae [18] = test: Bactericidal activity against Haemophilus influenzae ATCC 49247 incubated for 16 to 20 hrs by CLSI based broth microdilution method; conditions: time 16-20 hrs
Haemophilus influenzae [19] = test: Antibacterial activity against Haemophilus influenzae ATCC 49247 incubated for 16 to 20 hrs by CLSI based broth microdilution method; conditions: time 16-20 hrs
Staphylococcus aureus [20] = test: Bactericidal activity against methicillin-resistant Staphylococcus aureus PU 20 harboring c-ermA gene incubated for 16 to 20 hrs by CLSI based broth microdilution method; conditions: time 16-20 hrs

Row | Compound | MIC (Staphylococcus aureus [1]) | Selectivity ratio (Staphylococcus aureus [2]) | MBC (Staphylococcus aureus [3]) | Selectivity ratio (Streptococcus pyogenes [4]) | MBC (Streptococcus pyogenes [5]) | MIC (Streptococcus pyogenes [6]) | Selectivity ratio (Streptococcus pneumoniae [7]) | MBC (Streptococcus pneumoniae [8]) | MIC (Streptococcus pneumoniae [9]) | Selectivity ratio (Streptococcus pneumoniae [10]) | MBC (Streptococcus pneumoniae [11]) | Selectivity ratio (Streptococcus pneumoniae [12]) | MIC (Streptococcus pneumoniae [13]) | MBC (Streptococcus pneumoniae [14]) | MIC (Streptococcus pneumoniae [15]) | Selectivity ratio (Haemophilus influenzae [16]) | MIC (Staphylococcus aureus [17]) | MBC (Haemophilus influenzae [18]) | MIC (Haemophilus influenzae [19]) | MBC (Staphylococcus aureus [20])
1 | CC[C@H]1OC(=O)[C@H](C)C(=O)[C@H](C)[C@@H](O[C@@H]2O[C@H](C)C[C@H](N(C)C)[C@H]2O)[C@](C)(OC)C[C@@H](C)C(=O)[C@H](C)[C@H]2N(CCCCn3cnc(-c4cccnc4)c3)C(=O)O[C@]12C [TELITHROMYCIN] | > 256 µg/mL | 4 | 1 µg/mL (≈ 1.23 µM) | 4 | 0.125 µg/mL (≈ 0.154 µM) | 0.031 µg/mL (≈ 0.0382 µM) | 8 | 1 µg/mL (≈ 1.23 µM) | 0.125 µg/mL (≈ 0.154 µM) | 8 | 4 µg/mL (≈ 4.93 µM) | 4 | 0.5 µg/mL (≈ 0.616 µM) | 0.125 µg/mL (≈ 0.154 µM) | 0.031 µg/mL (≈ 0.0382 µM) |  |  |  |  | 
2 | CC[C@H]1OC(=O)[C@H](C)[C@@H](O[C@H]2C[C@@](C)(OC)[C@@H](O)[C@H](C)O2)[C@H](C)[C@@H](O[C@@H]2O[C@H](C)C[C@H](N(C)C)[C@H]2O)[C@](C)(OC)C[C@@H](C)C(=O)[C@H](C)[C@@H](O)[C@]1(C)O [CLARITHROMYCIN] | > 256 µg/mL | >8 |  | >8 | > 64 µg/mL | 8 µg/mL (≈ 10.7 µM) |  |  | > 32 µg/mL | 8 | 32 µg/mL (≈ 42.8 µM) | 4 |  | 0.25 µg/mL (≈ 0.334 µM) | 0.062 µg/mL (≈ 0.0829 µM) | 2 |  |  |  | 
3 | CC[C@H]1OC(=O)[C@H](C)[C@@H](OC(=O)CCN2CCN(c3cc4c(cc3F)c(=O)c(C(=O)O)cn4C3CC3)CC2)[C@H](C)[C@@H](O[C@@H]2O[C@H](C)C[C@H](N(C)C)[C@H]2O)[C@](C)(OC)C[C@@H](C)/C(=N\OCC#Cc2cncc3ccccc23)[C@H](C)[C@H]2OC(=O)O[C@@]21C | > 256 µg/mL |  |  | 2 | 64 µg/mL (≈ 54.2 µM) | 32 µg/mL (≈ 27.1 µM) |  |  | > 32 µg/mL | 2 | 32 µg/mL (≈ 27.1 µM) | 1 | 16 µg/mL (≈ 13.5 µM) | 4 µg/mL (≈ 3.39 µM) | 4 µg/mL (≈ 3.39 µM) | 1 | > 256 µg/mL | 1 µg/mL (≈ 0.846 µM) | 1 µg/mL (≈ 0.846 µM) | 
4 | C#CCO/N=C1\[C@H](C)C[C@@](C)(OC)[C@H](O[C@@H]2O[C@H](C)C[C@H](N(C)C)[C@H]2O)[C@@H](C)[C@H](OC(=O)CCN2CCN(c3cc4c(cc3F)c(=O)c(C(=O)O)cn4C3CC3)CC2)[C@@H](C)C(=O)O[C@H](CC)[C@@]2(C)OC(=O)O[C@@H]2[C@H]1C | 256 µg/mL (≈ 243 µM) | >4 | > 256 µg/mL | 2 | 8 µg/mL (≈ 7.59 µM) | 4 µg/mL (≈ 3.79 µM) |  | > 32 µg/mL | 32 µg/mL (≈ 30.4 µM) | 2 | 2 µg/mL (≈ 1.9 µM) | 1 | 1 µg/mL (≈ 0.949 µM) | 0.5 µg/mL (≈ 0.474 µM) | 0.5 µg/mL (≈ 0.474 µM) | 1 | 64 µg/mL (≈ 60.7 µM) | 1 µg/mL (≈ 0.949 µM) | 1 µg/mL (≈ 0.949 µM) | > 256 µg/mL
5 | CC[C@H]1OC(=O)[C@H](C)[C@@H](OC(=O)NCCCc2ccc3c(c2)c(=O)c(C(=O)O)cn3C2CC2)[C@H](C)[C@@H](O[C@@H]2O[C@H](C)C[C@H](N(C)C)[C@H]2O)[C@](C)(OC)C[C@@H](C)/C(=N\OC)[C@H](C)[C@H]2OC(=O)O[C@@]21C |  | >8 |  | 2 |  |  |  |  | > 32 µg/mL | 4 |  | 2 |  |  |  | 1 |  |  |  | 
6 | CC[C@H]1OC(=O)[C@H](C)[C@@H](OC(=O)CCN2CCN(c3cc4c(cc3F)c(=O)c(C(=O)O)cn4C3CC3)CC2)[C@H](C)[C@@H](O[C@@H]2O[C@H](C)C[C@H](N(C)C)[C@H]2O)[C@](C)(OC)C[C@@H](C)/C(=N\OC)[C@H](C)[C@H]2OC(=O)O[C@@]21C | 256 µg/mL (≈ 248 µM) | >4 | > 256 µg/mL | 8 | 8 µg/mL (≈ 7.77 µM) | 1 µg/mL (≈ 0.971 µM) |  |  | > 32 µg/mL | 4 | 2 µg/mL (≈ 1.94 µM) | 1 | 0.5 µg/mL (≈ 0.485 µM) | 0.25 µg/mL (≈ 0.243 µM) | 0.25 µg/mL (≈ 0.243 µM) | 2 | 64 µg/mL (≈ 62.1 µM) | 2 µg/mL (≈ 1.94 µM) | 1 µg/mL (≈ 0.971 µM) | > 256 µg/mL
7 | CC[C@H]1OC(=O)[C@H](C)[C@@H](OC(=O)CCNCCCc2ccc3c(c2)c(=O)c(C(=O)O)cn3C2CC2)[C@H](C)[C@@H](O[C@@H]2O[C@H](C)C[C@H](N(C)C)[C@H]2O)[C@](C)(OC)C[C@@H](C)/C(=N\OC)[C@H](C)[C@H]2OC(=O)O[C@@]21C |  |  |  | 1 |  |  |  | > 32 µg/mL | 16 µg/mL (≈ 16.2 µM) | 1 |  | 2 |  |  |  | 2 |  |  |  | 
8 | CC[C@H]1OC(=O)[C@H](C)[C@@H](OC(=O)CCNCCCCNc2cc3c(cc2F)c(=O)c(C(=O)O)cn3C2CC2)[C@H](C)[C@@H](O[C@@H]2O[C@H](C)C[C@H](N(C)C)[C@H]2O)[C@](C)(OC)C[C@@H](C)/C(=N\OCC#Cc2ccc3c(c2)c(=O)c(C(N)=O)cn3CC)[C@H](C)[C@H]2OC(=O)O[C@@]21C | > 256 µg/mL |  | > 256 µg/mL | >8 | > 8 µg/mL | 1 µg/mL (≈ 0.787 µM) | 4 | 8 µg/mL (≈ 6.3 µM) | 2 µg/mL (≈ 1.57 µM) | 1 | 0.25 µg/mL (≈ 0.197 µM) | 1 | 0.25 µg/mL (≈ 0.197 µM) | 0.12 µg/mL (≈ 0.0945 µM) | 0.12 µg/mL (≈ 0.0945 µM) | 1 | 128 µg/mL (≈ 101 µM) | 8 µg/mL (≈ 6.3 µM) | 8 µg/mL (≈ 6.3 µM) | > 256 µg/mL
9 | CC[C@H]1OC(=O)[C@H](C)[C@@H](OC(=O)CCNCCNc2cc3c(=O)c(C(=O)O)cn(C4CC4)c3cc2Cl)[C@H](C)[C@@H](O[C@@H]2O[C@H](C)C[C@H](N(C)C)[C@H]2O)[C@](C)(OC)C[C@@H](C)/C(=N\OC)[C@H](C)[C@H]2OC(=O)O[C@@]21C | > 256 µg/mL |  |  | 2 |  |  |  |  | > 32 µg/mL | 1 |  | 2 |  |  |  | 1 |  |  |  | 
10 | CC[C@H]1OC(=O)[C@H](C)[C@@H](OC(=O)CCNCCCCCCCCNc2cc3c(=O)c(C(=O)O)cn(C4CC4)c3cc2Cl)[C@H](C)[C@@H](O[C@@H]2O[C@H](C)C[C@H](N(C)C)[C@H]2O)[C@](C)(OC)C[C@@H](C)/C(=N\OC)[C@H](C)[C@H]2OC(=O)O[C@@]21C | 128 µg/mL (≈ 116 µM) |  | > 256 µg/mL | >8 | > 32 µg/mL | 4 µg/mL (≈ 3.62 µM) |  |  | > 32 µg/mL | 1 | 16 µg/mL (≈ 14.5 µM) | 1 | 16 µg/mL (≈ 14.5 µM) | 2 µg/mL (≈ 1.81 µM) | 2 µg/mL (≈ 1.81 µM) |  | 128 µg/mL (≈ 116 µM) |  | > 256 µg/mL | > 256 µg/mL
11 | CC[C@H]1OC(=O)[C@H](C)[C@@H](OC(=O)CCN2CCN(c3cc4c(cc3F)c(=O)c(C(N)=O)cn4C3CC3)CC2)[C@H](C)[C@@H](O[C@@H]2O[C@H](C)C[C@H](N(C)C)[C@H]2O)[C@](C)(OC)C[C@@H](C)/C(=N\OCC#Cc2cncc(C(=O)NC)c2)[C@H](C)[C@H]2OC(=O)O[C@@]21C | > 256 µg/mL |  | > 256 µg/mL | >8 | > 256 µg/mL | 32 µg/mL (≈ 27 µM) |  | > 256 µg/mL | 256 µg/mL (≈ 216 µM) | 4 | 4 µg/mL (≈ 3.37 µM) | 4 | 1 µg/mL (≈ 0.842 µM) | 1 µg/mL (≈ 0.842 µM) | 0.25 µg/mL (≈ 0.211 µM) |  | 256 µg/mL (≈ 216 µM) | > 256 µg/mL | > 256 µg/mL | > 256 µg/mL
